Reference: ChEMBL document CHEMBL1158654, “Cytotoxic principles from the sap of Kalmia latifolia” (J Nat Prod, 1979)
≈ marks a conversion by molar mass, not a printed value.

How the values were obtained:
[1] = Cytotoxicity against human 9KB cells assessed as cell survival at 10 ug/ml relative to control; type: functional; settings: read-out: Activity
[2] = Cytotoxicity against human 9KB cells assessed as cell survival at 100 ug/ml relative to control; type: functional; settings: read-out: Activity
[3] = Cytotoxicity against human 9KB cells relative to control; type: functional; settings: read-out: ED50 (the source's name)
[4] = Cytotoxicity against human 9KB cells in in-vivo based assay at 65 mg/kg relative to control; type: functional
[5] = Toxicity in ip dosed mouse; type: organism-based; settings: in vivo
[6] = system: P388; assay: Cytotoxicity against mouse P388 cells relative to control; type: functional

## COc1ccc(CCC(=O)c2c(O)cc(O)cc2O)cc1O
[1]
  viability at 10 µg/mL: 100%
[2]
  viability at 100 µg/mL: 46%

## COc1cc(CCC(=O)c2ccccc2)ccc1O
[1]
  viability at 10 µg/mL: 82%
[2]
  viability at 100 µg/mL: 0%

## O=C(CCc1ccc(O)cc1)c1c(O)cccc1O
[1]
  viability at 10 µg/mL: 100%
[2]
  viability at 100 µg/mL: 20%

## O=C(CCc1ccc(O)cc1)c1cccc(O)c1
[1]
  viability at 10 µg/mL: 71%
[2]
  viability at 100 µg/mL: 0%

## O=C(CCc1ccc(O)c(O)c1)c1ccccc1O
[1]
  viability at 10 µg/mL: 100%
[2]
  viability at 100 µg/mL: 0%

## COc1cc(CCC(=O)c2ccccc2O)ccc1O
[1]
  viability at 10 µg/mL: 76%
[2]
  viability at 100 µg/mL: 0%

## COc1ccc(C(=O)CCc2ccc(O)cc2)c(O)c1
[1]
  viability at 10 µg/mL: 100%
[2]
  viability at 100 µg/mL: 0%

## COc1cc(O)c(C(C)=O)c(O)c1
[1]
  viability at 10 µg/mL: 0%
[2]
  viability at 100 µg/mL: 0%
[3]
  EC50: 4.7 µg/mL (≈ 25.8 µM)

## O=C(CCc1ccc(O)cc1)c1ccc(O)c(O)c1O
[1]
  viability at 10 µg/mL: 100%
[2]
  viability at 100 µg/mL: 0%

## O=C(CCc1ccc(O)cc1)c1ccccc1O
[1]
  viability at 10 µg/mL: 100%
[2]
  viability at 100 µg/mL: 0%

## COc1cc(O)c(C(=O)CCc2ccccc2)c(OC)c1
[1]
  viability at 10 µg/mL: 59%
[2]
  viability at 100 µg/mL: 0%

## COc1cc(C(=O)CCc2ccc(O)cc2)ccc1O
[1]
  viability at 10 µg/mL: 57%
[2]
  viability at 100 µg/mL: 0%

## O=C(CCc1ccc(O)c(O)c1)c1c(O)cc(O)cc1O
[1]
  viability at 10 µg/mL: 95%
[2]
  viability at 100 µg/mL: 0%

## O=C(CCc1ccc(O)cc1)c1ccc(O)cc1
[1]
  viability at 10 µg/mL: 90%
[2]
  viability at 100 µg/mL: 0%

## O=C(CCc1ccc(O)cc1)c1ccccc1
[1]
  viability at 10 µg/mL: 89%
[2]
  viability at 100 µg/mL: 0%

## O=C(CCc1ccccc1)c1c(O)cc(O)cc1O
[1]
  viability at 10 µg/mL: 100%
[2]
  viability at 100 µg/mL: 0%

## O=C(CCc1ccc(O)c(O)c1)c1ccc(O)c(O)c1O
[1]
  viability at 10 µg/mL: 0%
[2]
  viability at 100 µg/mL: 0%
[4]
  T/C: 126%
[3]
  EC50: 2.5 µg/mL (≈ 8.61 µM)

## CC(=O)c1c(O)cc(O)cc1O [2,4,6-TRIHYDROXYACETOPHENONE]
[1]
  viability at 10 µg/mL: 100%
[2]
  viability at 100 µg/mL: 29%

## COc1cc(O)c(C(=O)CCc2ccc(O)cc2)c(O)c1 [ASEBOGENIN]
[1]
  viability at 10 µg/mL: 100%
[2]
  viability at 100 µg/mL: 0%

## COc1cc(O)c(C(=O)CCc2ccc(O)cc2)c(O[C@@H]2O[C@H](CO)[C@@H](O)[C@H](O)[C@H]2O)c1 [ASEBOTIN]
[1]
  viability at 10 µg/mL: 100%
[2]
  viability at 100 µg/mL: 100%

## O=C(CCc1ccc(O)cc1)c1ccc(O)cc1O [DAVIDIGENIN]
[1]
  viability at 10 µg/mL: 50%
[2]
  viability at 100 µg/mL: 0%

## CC(=O)c1ccc(O)c(O)c1O [GALLACETOPHENONE]
[1]
  viability at 10 µg/mL: 81%
[2]
  viability at 100 µg/mL: 0%

## CC(=O)O[C@@H]1[C@H]2CC[C@H]3[C@@](C)(O)[C@@H]4C[C@H](O)C(C)(C)[C@@]4(O)[C@H](O)C[C@@]13C[C@@]2(C)O [GRAYANOTOXIN I]
[5]
  LD50: 1.3 mg/kg
[3]
  EC50: 60 µg/mL (≈ 145 µM)

## O=C(CCc1ccc(O)cc1)c1c(O)cc(O)cc1O [PHLORETIN]
[1]
  viability at 10 µg/mL: 76%
[2]
  viability at 100 µg/mL: 0%
[3]
  EC50: 28 µg/mL (≈ 102 µM)

## O=C(CCc1ccc(O)cc1)c1c(O)cc(O)cc1O[C@@H]1O[C@H](CO)[C@@H](O)[C@H](O)[C@H]1O [PHLORIZIN]
[1]
  viability at 10 µg/mL: 100%
[2]
  viability at 100 µg/mL: 47%
[3]
  EC50: 100 µg/mL (≈ 229 µM)

## COc1cc(O)c(C(C)=O)c(O[C@@H]2O[C@H](CO)[C@@H](O)[C@H](O)[C@H]2O)c1 [PLEOSIDE]
[1]
  viability at 10 µg/mL: 100%
[2]
  viability at 100 µg/mL: 39%

## COc1cc(O)c(Cc2ccccc2O)c(O)c1C(=O)CCc1ccccc1 [UVARETIN]
[6]
  T/C: 132%

## COc1cc(O)c(C(C)=O)c(OC)c1 [XANTHOXYLIN]
[1]
  viability at 10 µg/mL: 100%
[2]
  viability at 100 µg/mL: 0%
